Results published in patent US11285180B2, “Methods of enhancing the potency of incretin-based drugs in subjects in need thereof” (INSERM (INSTITUT NATIONAL DE LA SANTE ET DE LA RECHERCHE …, priority 2016, dated 2022).

Tests used:
[1] = system: GLP-1-induced insulin secretion; assay: In vivo GLP-1 stimulated insulin secretion (i.p. GLP-1, then i.v. glucose challenge); set-up: species or system mice
Description: (§1) To evaluate GLP-1 sensitivity three GLP-1 regulated parameters were quantified: insulin secretion, gastric emptying, and food intake. To prevent from the degradation of exogenous GLP-1 a DPP4 inhibitor (400 μg/mouse sitagliptin) was given orally 30 min before the GLP-1 challenge.
Since GLP-1 insulinotropic effect is glucose dependent we first assessed in vivo GLP-1 stimulated insulin secretion in hyperglycemic conditions. The mice were first fasted for 6 h before the GLP-1 and glucose challenges. Active GLP-17-36 (BACHEM, Switzerland) was then administered intraperitoneally at different doses (0, 2.2, 7, 20, 63 nmol/kg, diluted in distilled water) 5 min before the glucose challenge. In some sets of experiments a single active dose of 7 nmol/kg was tested. To induce hyperglycemic conditions a retrorbital i.v. glucose (1 g/kg) injection was realised. This procedure avoids the confounding effect of the oral glucose-induced gut-secreted GLP-1. Blood (30 μl) was collected from the tail vein 15 min after glucose challenge. Plasma insulin concentration was determined.
The dose-response curve was calculated by curve interpolation with 4-Parameter Logistic (4PL) sigmoidal model using GraphPad Prism version 6.00 for Mac (GraphPad Software, San Diego, Calif., USA; www.graphpad.com) and the ECso calculated.
(§2) Thirty minutes before all 3 GLP-1 challenge procedures, a NO synthase (NOS) inhibitor (L-NAME, Abcam) was administered i.p. at doses of 0, 50, 100, 200 μg/kg. In a different set of mice, a NO donor (L-Arginine, 1 g/kg, Sigma-Aldrich) was administered orally in the presence or absence of the GLP-1r antagonist, Exendin 9 (1 nmol/mice, 100 μL, i.p. injection, Bachem). To study the chronic effect of L-arginine in GLP-1 sensitivity, the molecule (0.5 g/kg, 300 μL, lgavage/day) was administered for one week.

gastric emptying = assay: GLP-1 regulated gastric emptying (oral acetaminophen, plasma acetaminophen); assay type: in vivo, mice
Description: as §1
For gastric emptying the glucose challenge was replaced by an oral administration of acetaminophen (SIGMA-Aldrich, […]). The plasma acetaminophen concentrations were assessed by colorimetric-based assay (SEKISUI diagnostics, Canada) in the plasma from tail blood during 15 min.
as §2

food intake = assay: GLP-1 regulated food intake (30 min after 16-hour fast); assay type: in vivo, mice
Description: as §1
Food intake was recorded for 30 min following a 16-hour period of fast.
as §2

distal ileum segment = assay: Ex vivo ileal real-time NO measurement; set-up: species or system mice
Description: The distal ileum segment from fed mice were washed in Krebs-Ringer bicarbonate/glucose buffer (pH 7.4) in an atmosphere containing 95% O2—5% CO2 and then immersed in Eppendorf tubes containing 400 μL of the same medium. After a 10 min recovery period, the spontaneous NO release in response to 10 μL of Krebs-Ringer solution (control), GLP-1 (150 nM) and/or Exendin 9 (375 nM) was measured at 37° C. for 10 min using a NO-specific amperometric probe (ISO-NOPF, […], 5 mm length, World Precision Instruments, Aston Stevenage, UK) implanted directly in the ileum. Data are expressed (Fournel et al., 2015).

insulin secretion = assay: Oral glucose-induced insulin secretion after oral NO donor; assay type: in vivo, mice
Description: To identify oral glucose-induced insulin and GLP-1 secretions, all sets of mice were gavaged with glucose (2 g/kg). After 15 min, 30 μl of blood from the tip of the tail vein were sampled to assess plasma insulin concentration. 300 μl of portal vein blood were collected following an intravenous (i.v.) administration of a Ketamin (10 mg/kg)/Xylasin (1 mg/kg), to ensure an immediate anesthesia of the mice. This procedure allows performing portal vein blood sampling since it dramatically minimizes the impact of anesthesia on blood parameters. In addition, to prevent from the in vivo degradation of GLP-1 by DPP4, a DPP4 inhibitor (400 μg/mouse sitagliptin, MSD Rahway, N.J.) was administered orally 30 min before the oral gavage with glucose. Eventually, the portal blood was collected in the presence of protease inhibitors diprotin A (1 mM), aprotinin (0.2 μM) and EDTA (1 mM). Plasma hormones were assessed by ELISA (insulin, Mercodia; active GLP-17-36, Alpco). A GLP-1 resistance index for each mice was calculated from glucose, insulin and GLP-1 concentrations 15 min after the oral glucose load. Since the insulinotropic activity of GLP-1 depends upon the glycemic level we set the following equation: Glucose x GLP-1 concentrations/insulin concentration. In some experiments, distal ileum and left nodose ganglion were harvested from mice.
as §2

primary enteric neurons = assay: GLP-1-induced NO production in primary cultures of enteric neurons (DAF-FM); assay type: cell-based, mice
Description: The protocol was adapted from Smith and colleagues (Smith et al., 2013). The ileum (last 9 cm) was harvested and kept in ice cold-carbogen bubbled-Krebs solution. The tissue was cut into 3 cm slices and kept on plastic rod. An incision was realized with a forceps where the mesentery was attached. The outer layers containing muscular cells and myenteric neurons (LMMP) were obtained by moving from top to bottom, along the gap. The LMMP were digested with collagenase II (1.3 mg/mL, Worthington) and BSA (0.3 mg/mL) in Krebs solution bubbled with carbogen 30 min in a 37° C. shaking bath. Digested cells were transferred in Hank Balanced salt Solution (HBSS)/trypsin solution (0.05%) 7 min in a 37° C. shaking bath. […]
Primary enteric neurons were grown for 7 days in culture. […] The fluorescence was measured on confocal Zeiss Laser Scanning Microscope LSM-780 equipped with 63×/1.4 NA oil immersion objective and a GaAsP detector with quantum yield of 45% with Black Zen software and analysed with Image J software. A region of interest (ROI) corresponding to identified nNOS positive cells was defined from where the DAF-FM or nNOS fluorescence mean per ROI was measured. The ratio of both values for each ROI was then calculated.

[2] = system: cFos positive cells in the brain stem (NTS-DMNX); assay: c-FOS immunostaining in the brain stem after GLP-1; assay type: in vivo, mice
Description: Brain was removed and kept on PFA 4% overnight at 4° C. After washing in cold citrate buffer for 6 h, brain was warmed until boiling, washed in PBS, cooled to 4° C., then immersed in cold sucrose solutions (10% then 30% in PBS). After freezing on dry ice, the brain was stored at −80° C. and cut into 20 μm thick slices (cryostat, Thermo). The slices were washed 3 times with PBS, blocked with PBS, 0.3% Triton X100, 2% donkey serum and incubated with the c-fos antibody diluted in the same solution ( 1/10000, Santa Cruz) overnight at RT. After 16 h, the brain slices were washed 3 times with PBS and incubated with biotinylated antibody ( 1/2000, Jackson ImmunoResearch) diluted in the PBST solution (PBS, 0.3% Triton X100) for 1 h at RT. Brain slices were washed 3 times in PBS and incubated with the reagent A (avidin) and B (biotinylated enzyme) from Vectastain Elite ABC kit (Vector Laboratories) diluted in the PBST solution, 30 min at RT. Then, brain slices were washed 3 times in PBS and incubated with biotinylated tyramine solution (tyramine and biotin diluted in borate buffer/3% H2O2, pH=8.4), 20 min at RT. […] The fluorescence was analysed as above. We identified the Nucleus Tractus Solitary NTS and dorsal motor nucleus of vagus nerve DMNX area using a mouse brain atlas (Franklin and Paxinos, 1997) and we counted the number of cFOS positive cells/area corresponding to the NTS-DMNX.

[3] = system: meal-induced insulin secretion; details: administered orally; healthy, type II diabetic patients, and diabetic mice; cited from earlier work
[4] = L-NAME i.p. 30 min before GLP-1 challenge

COC(=O)[C@@H](N)CCCNC(=N)N[N+](=O)[O-] [L-NAME]
effect on GLP-1-induced insulin secretion ([1]; NCD mice, L-NAME i.p. 30 min before GLP-1 challenge): partially reduced | effect on GLP-1-induced gastric emptying inhibition (gastric emptying; [4]): altered | effect on GLP-1-induced food intake inhibition (food intake; [4]): but not GLP-1-induced food intake inhibition

Exendin 9
effect on GLP-1 induced NO production (distal ileum segment; ileum segments, Exendin 9 with GLP-1): prevented GLP-1 induced NO production | effect of co-treatment on L-Arginine-increased insulin secretion (insulin secretion; NCD-fed mice, co-treatment with L-Arginine): prevented the effect of GLP-1

GLP-1: Active GLP-1 7-36 (BACHEM), insulinotropic hormone, GLP-1 receptor agonist
EC50 of GLP-1-induced insulin secretion (fold change dose-response) ([1]; HC-HFD mice compared to NCD mice): doubled | EC50 of GLP-1-induced insulin secretion (fold change dose-response) ([1]; HFD-fed lean diabetic mice compared to NCD mice): dramatically increased | dose of GLP-1 reaching the maximal insulin secretion ([1]; NCD and HC-HFD-fed mice, GLP-1 i.p., plasma insulin 15 min after i.v. glucose): 7 nmol/kg | GLP-1-induced insulin secretion ([1]; NCD-fed subdiaphragmatic vagotomy (SDVx) mice, GLP-1 7 nmol/kg): reduced | GLP-1-induced insulin secretion ([1]; NOD2, CD14 and TLR4 KO mice compared to wild type controls): dramatically reduced | GLP-1-induced insulin secretion ([1]; germ free mice): prevented | gastric emptying (gastric emptying; NOD2, CD14 and TLR4 KO mice): impaired | GLP-1 effect on gastric emptying (gastric emptying; SDVx-operated NCD-fed mice): induces GLP-1 resistance to gastric emptying | plasma concentrations of acetaminophen after GLP-1 administration (gastric emptying) (gastric emptying; both fat-enriched diet-fed mice (HC-HFD, HFD)): remained elevated | energy intake with increasing doses of GLP-1 (food intake; HFD-fed lean diabetic mice compared to NCD-fed mice): only modestly reduced | food intake (food intake; NOD2, CD14 and TLR4 KO mice): remained unchanged | energy intake after GLP-1 administration (food intake; sham versus SDVx-operated mice): similar | GLP-1-induced NO production ex vivo from ileum segments (distal ileum segment; HFD-fed GLP-1 resistant mice): totally blunted | GLP-1-induced NO production ex vivo from ileum segments (distal ileum segment; NCD versus HC-HFD-fed GLP-1 sensitive mice): similar | GLP-1-induced NO production (primary enteric neurons; enteric neurons from HFD-fed mice versus NCD): dramatically resistant | NO production by enteric neurons stimulated by GLP-1 (primary enteric neurons; enteric neurons from germ free mice): could not be stimulated | number of cFos positive neurons in response to GLP-1 ([2]; NCD mice, GLP-1 7 nmol/kg): increases | number of cFos positive cells in the brain stem after GLP-1 administration ([2]; germ free mice): could not be increased

N=C(N)NCCC[C@H](N)C(=O)O [L-Arginine]
GLP-1-induced insulin secretion (GLP-1 sensitivity) ([1]; HFD diabetic mice, chronic NO-donor treatment (1 week)): enhanced | gastric emptying (gastric emptying; HFD diabetic mice, NO-donor treatment): could also improve | gastric emptying inhibition (gastric emptying; oral NO donor, through the GLP-1r): can induce gastric emptying inhibition | insulin secretion (insulin secretion; HFD GLP-1 resistant diabetic mice, oral and acute administration): improved insulin secretion | insulin secretion after oral glucose challenge (insulin secretion; NCD-fed mice, oral and acute treatment): induced insulin secretion | meal-induced insulin secretion [3]: improves
